Common to all, as to assay: in vitro antibacterial activity, agar plate dilution method
What all share (type): cell-based

Test [1] relates to A. calcoaceticus No. 4. The following applies: Acinetobacter calcoaceticus. The method, then: (§1) Now, the in vitro antibacterial activities of the compounds of the present invention against various microorganisms, were measured by the following agar plate dilution method.
(§2) One platinum loopfull of each test microorganism incubated overnight in Mueller Hinton broth, was inoculated to Mueller Hinton agar (MH agaer). Such culture media containing various antibiotics in various concentrations were prepared. After incubation at 37° C. for 16 hours, the minimum inhibitory concentrations (MIC μg/ml) were measured.

Test [2] concerns E. cloacae 963. The method, then: as §1, §2
Test [3] has as its system E. cloacae Nek 39*. The following applies: Enterobacter cloacae. The method, then:
as §1, §2

Test [4] concerns E. coli CSH(RE45)*. The following applies: Escherichia coli; 10^6 CFU/ml; β-Lactamase-producing strain; 37° C., 16 hours; read-out: MIC. The method, then:
as §1, §2

The test system of test [5] is E. coli CSH2(RK1)*. The following applies: Escherichia coli, 16 h. The method, then: as §1, §2
Test [6] has as its system E. coli GN5482*. The settings on record: Escherichia coli. The method, then: as §1, §2
In test [7] the test system is E. coli NIHJ JC2. The settings on record: Escherichia coli, NIHJJC2; 10^6 CFU/ml; Mueller Hinton agar, 37° C., 16 hours; read-out: MIC. The method, then: as §1, §2
In test [8] the test system is K. oxytoca GN10650*. The settings on record: Klebsiella oxytoca. The protocol: as §1, §2
Test [9] concerns K. pneumoniae No. 42*. The following applies: Klebsiella pneumoniae. The protocol: as §1, §2
In test [10] the test system is K. pneumoniae PC1-602. The settings on record: Klebsiella pneumoniae. The protocol:
as §1, §2

The test system of test [11] is M. morganii GN5407*. The settings on record: Morganella morganii. The method, then: as §1, §2
Test [12] deals with P. vulgaris HX-19. The following applies: Proteus vulgaris. The method, then: as §1, §2
The test system of test [13] is P. vulgaris No. 33*. The following applies: Proteus vulgaris. The method, then:
as §1, §2

In test [14] the test system is Ps. aeruginosa AK 109. The settings on record: Pseudomonas aeruginosa. The method, then: as §1, §2
Test [15] deals with Ps. aeruginosa AKR17. The following applies: Pseudomonas aeruginosa, AKR17; 10^6 CFU/ml; Mueller Hinton agar, 37° C., 16 hours; read-out: MIC. The protocol: as §1, §2
In test [16] the test system is Ps. aeruginosa IFO3445. The settings on record: Pseudomonas aeruginosa. The method, then: as §1, §2
Test [17] concerns Ps. cepacia 23. The protocol: as §1, §2
For test [18], the system named is S. aureus 209P NIHJ-JC1. The following applies: Staphylococcus aureus. The protocol: as §1, §2
Test [19] relates to S. marcescens IAM 1184. The settings on record: Serratia marcescens. The protocol: as §1, §2
For test [20], the system named is S. marcescens No. 16-2*. The settings on record: Serratia marcescens. The method, then:
as §1, §2

Setting [21] is: NO.4, 10^6 CFU/ml, Mueller Hinton agar, 37° C., 16 hours, read-out: MIC.
Setting [22] is: Enterobacter cloacae, 963, 16 h.
[23] abbreviates: 10^6 CFU/ml, β-Lactamase-producing strain, 37° C., 16 hours, read-out: MIC.
The mark [24] stands for this setting: AK109, 10^6 CFU/ml, Mueller Hinton agar, 37° C., 16 hours, read-out: MIC.
Where [25] appears, read: Burkholderia cepacia, 23, 10^6 CFU/ml, Mueller Hinton agar, 37° C., 16 hours, read-out: MIC.
Setting [26] is: 10^6 CFU/ml, Mueller Hinton agar, 37° C., 16 hours, read-out: MIC.
[27] abbreviates: PC1602, 10^6 CFU/ml, Mueller Hinton agar, 37° C., 16 hours, read-out: MIC.
[28] abbreviates: IAM1184, 10^6 CFU/ml, Mueller Hinton agar, 37° C., 16 hours, read-out: MIC.
[29] abbreviates: HX19, 10^6 CFU/ml, Mueller Hinton agar, 37° C., 16 hours, read-out: MIC.
Setting [30] is: GN10650, 10^6 CFU/ml, β-Lactamase-producing strain, 37° C., 16 hours, read-out: MIC.
Where [31] appears, read: GN5407, 10^6 CFU/ml, β-Lactamase-producing strain, 37° C., 16 hours, read-out: MIC.

≈ marks a conversion by molar mass, not a printed value. Like-named read-outs stand apart in the source and are kept apart here.

The MIC is the lowest concentration that inhibits growth of the organism.

`C=C(O/N=C(\C(=O)N[C@@H]1C(=O)N2C(C(=O)O)=C(C[n+]3ccc(CCS(=O)(=O)[O-])cc3)CS[C@H]12)c1csc(N)n1)C(=O)O` [Example 8, 7β-[2-(2-aminothiazol-4-yl)-2-(1-carboxy-1-vinyloxyimino)acetamido]-3-[4-(2-sulfonatoethyl)-1-pyridinio]methyl-3-cephem-4-carboxylic acid (syn-isomer)]: the MIC was 12.5 µg/mL (≈ 19.6 µM) in [1] (setting [21]); 0.2 µg/mL (≈ 0.313 µM) in [2] (setting [22]); 0.78 µg/mL (≈ 1.22 µM) in test [3] (16 h); 0.05 µg/mL (≈ 0.0783 µM) in test [4]; 0.05 µg/mL (≈ 0.0783 µM) in test [5]; 0.39 µg/mL (≈ 0.611 µM) in test [6] (GN5482, 10^6 CFU/ml, β-Lactamase-producing strain, 37° C., 16 hours, read-out: MIC). Moreover, the MIC in test [7] worked out at 0.05 µg/mL (≈ 0.0783 µM); in test [8] (GN10650, 16 h) it was 0.2 µg/mL (≈ 0.313 µM); in test [9] (setting [23]), 0.39 µg/mL (≈ 0.611 µM); in test [10] (PC1602, 16 h), 0.025 µg/mL (≈ 0.0391 µM); in test [11] (GN5407, 16 h), 0.05 µg/mL (≈ 0.0783 µM); in test [12] (HX19, 16 h) it was 0.025 µg/mL (≈ 0.0391 µM). In addition, the minimal inhibitory concentration (MIC) in test [13] (16 h) is 0.05 µg/mL (≈ 0.0783 µM); in test [14] (setting [24]) it was 12.5 µg/mL (≈ 19.6 µM); in [15], greater than 100 µg/mL; in [16] (IFO3445, 10^6 CFU/ml, Mueller Hinton agar, 37° C., 16 hours, read-out: MIC) it was 3.12 µg/mL (≈ 4.89 µM); in test [17] (setting [25]) it was 12.5 µg/mL (≈ 19.6 µM); in test [18] (setting [26]), 6.25 µg/mL (≈ 9.79 µM). Besides, the MIC in test [19] (IAM1184, 16 h) was determined as 0.025 µg/mL (≈ 0.0391 µM); in [20] (setting [23]), 3.12 µg/mL (≈ 4.89 µM).

Take `C=C(O/N=C(\C(=O)N[C@@H]1C(=O)N2C(C(=O)[O-])=C(C[n+]3cccc(N)c3)CS[C@H]12)c1csc(N)n1)C(=O)O` [Example 9, sodium 7β-[2-(2-aminothiazol-4-yl)-2-(1-carboxylato-1-vinyloxyimino)acetamido]-3-(3-amino-1-5 pyridinio)methyl 3-cephem-4-carboxylate (syn-isomer)]: the MIC was 3.12 µg/mL in test [1] (setting [21]); 0.05 µg/mL in test [2] (setting [22]); 0.78 µg/mL in test [3] (16 h); 0.0125 µg/mL in [4]; 0.025 µg/mL in test [5]; 0.2 µg/mL in test [6] (GN5482, 16 h). Further, the MIC was 0.025 µg/mL in [7]; 0.1 µg/mL in [8] (GN10650, 16 h); 0.1 µg/mL in test [9] (16 h); less than 0.006 µg/mL in test [10] (setting [27]); 0.39 µg/mL in test [11] (GN5407, 16 h); 0.0125 µg/mL in test [12] (HX19, 16 h). Besides, the MIC is 0.0125 µg/mL in [13] (16 h); 3.12 µg/mL in test [14] (setting [24]); greater than 100 µg/mL in test [15]; 0.78 µg/mL in [16] (IFO3445, 16 h); 3.12 µg/mL in [17] (setting [25]); 3.12 µg/mL in test [18] (setting [26]). In addition, the MIC is less than 0.006 µg/mL in test [19] (setting [28]) and 1.56 µg/mL in test [20] (16 h).

For `C=C(O/N=C(\C(=O)N[C@@H]1C(=O)N2C(C(=O)[O-])=C(C[n+]3cccc(NC=O)c3)CS[C@H]12)c1csc(N)n1)C(=O)O` [Example 10, sodium 7β-[2-(2-aminothiazol-4-yl)-2-(1-carboxylato-1-vinyloxyimino)acetamido]-3-(3-formylamino-1-pyridinio)methyl-3-cephem-4-carboxylate (syn-isomer)], the MIC in test [1] (setting [21]) is 3.12 µg/mL; in test [2] (setting [22]), 0.025 µg/mL; in [3] (16 h), 0.39 µg/mL; in [4], 0.0125 µg/mL; in test [5], 0.0125 µg/mL; in test [6] (GN5482, 16 h), 0.1 µg/mL. Besides, the MIC in test [7] was 0.0125 µg/mL; in test [8] (GN10650, 16 h), 0.05 µg/mL; in [9] (16 h) it was 0.05 µg/mL; in test [10] (setting [27]), less than 0.006 µg/mL; in test [11] (GN5407, 16 h), 0.0125 µg/mL; in test [12] (setting [29]) it was less than 0.006 µg/mL. In addition, the MIC in test [13] (16 h) is 0.0125 µg/mL; in test [14] (setting [24]) it was 3.12 µg/mL; in test [15], greater than 100 µg/mL; in test [16] (IFO3445, 16 h), 0.78 µg/mL; in [17] (setting [25]), 3.12 µg/mL; in test [18] (16 h) it was 1.56 µg/mL. Besides, the MIC in test [19] (setting [28]) is less than 0.006 µg/mL; in test [20] (16 h), 1.56 µg/mL.

Consider `C=C(O/N=C(\C(=O)N[C@@H]1C(=O)N2C(C(=O)O)=C(CSc3nnc(-c4ccc(O)c(O)c4)o3)CS[C@H]12)c1csc(N)n1)C(=O)O` [Example 11, disodium 7β-[2-(2-aminothiazol-4-yl)-2-(1-carboxy-1-vinyloxyimino)acetamido]-3-[5-(3,4-dihydroxyphenyl)-1,3,4-oxadiazol-2-yl]thiomethyl-3-cephem-4-carboxylate (syn-isomer)], for which the MIC in test [1] (NO.4, 16 h) is 0.1 µg/mL; in test [2] (Enterobacter cloacae, 963, 10^6 CFU/ml, Mueller Hinton agar, 37° C., 16 hours, read-out: MIC) it was 0.025 µg/mL; in test [3] (setting [23]), 0.025 µg/mL; in [4], 0.05 µg/mL; in test [5], less than 0.006 µg/mL; in test [6] (GN5482, 16 h), 0.1 µg/mL. Further, the MIC in test [7] was 0.05 µg/mL; in test [8] (setting [30]), 0.025 µg/mL; in test [9] (setting [23]), 0.025 µg/mL; in [10] (setting [27]) it was less than 0.006 µg/mL; in test [11] (setting [31]), 0.0125 µg/mL; in test [12] (setting [29]), less than 0.006 µg/mL. Besides, the MIC is 0.0125 µg/mL in test [13] (setting [23]); 0.2 µg/mL in test [14] (AK109, 16 h); 3.12 µg/mL in test [15]; 0.39 µg/mL in [16] (IFO3445, 16 h); less than 0.006 µg/mL in test [17] (setting [25]); 12.5 µg/mL in [18] (setting [26]). For the same compound, the minimal inhibitory concentration (MIC) in test [19] (setting [28]) turned out to be 0.025 µg/mL; in [20] (16 h), 0.2 µg/mL.

On to `C=C(O/N=C(\C(=O)N[C@@H]1C(=O)N2C(C(=O)O)=C(CSc3nc(-c4ccc(O)c(O)c4)cs3)CS[C@H]12)c1csc(N)n1)C(=O)O` [Example 12, disodium 7β-[2-(2-aminothiazol-4-yl)-2-(1-carboxylato-1-vinyloxyimino)acetamido]-3-[4-(3,4-dihydroxyphenyl)thiazol-2-yl]thiomethyl-3-cephem-4-carboxylate(syn-isomer)], for which the MIC in test [1] (NO.4, 16 h) was 0.2 µg/mL; in test [2] (setting [22]) it was 0.2 µg/mL; in [3] (setting [23]) it was 0.1 µg/mL; in test [4], 0.025 µg/mL; in test [5], 0.025 µg/mL; in [6] (GN5482, 16 h) it was 0.39 µg/mL. In addition, the MIC in test [7] is 0.39 µg/mL; in test [8] (setting [30]), 0.1 µg/mL; in test [9] (setting [23]), 0.05 µg/mL; in test [10] (setting [27]) it was less than 0.006 µg/mL; in test [11] (setting [31]), 0.05 µg/mL; in [12] (setting [29]), less than 0.006 µg/mL. The MIC in test [13] (16 h) came to 0.025 µg/mL; in test [14] (setting [24]), 1.56 µg/mL; in test [15], 3.12 µg/mL; in [16] (IFO3445, 16 h) it was 0.78 µg/mL; in [17] (Burkholderia cepacia, 23, 16 h), 0.025 µg/mL; in test [18] (setting [26]) it was 3.12 µg/mL. Moreover, the MIC was determined as 0.05 µg/mL in [19] (setting [28]) and 0.39 µg/mL in test [20] (16 h).
